For experiment [1], the system named is Trypanosoma brucei rhodesiense. Briefly: Antitrypanosomal activity against Trypanosoma brucei rhodesiense STIB900 infected in NMRI mouse assessed as survival days at 5 mg/kg, ip. It is filed as functional. To be noted: route intraperitoneal.
Experiment [2] concerns Plasmodium falciparum. Briefly: Antiplasmodial activity against Plasmodium falciparum K1. It is filed as functional, organism-based.
Experiment [3] has as its system Trypanosoma brucei rhodesiense. Briefly: Antitrypanosomal activity against Trypanosoma brucei rhodesiense STIB900 infected in NMRI mouse assessed as survival at 5 mg/kg, ip. Type of experiment: functional, organism-based. The arrangement: dose 5 mg/kg.
The subject of experiment [4] is Trypanosoma brucei rhodesiense. Briefly: Antitrypanosomal activity against Trypanosoma brucei rhodesiense STIB900. It is filed as functional, organism-based.
Experiment [5] relates to Trypanosoma brucei rhodesiense. Conditions: dose 20 mg/kg; route intraperitoneal.
Description: Antitrypanosomal activity against Trypanosoma brucei rhodesiense STIB900 infected in NMRI mouse assessed as survival days at 20 mg/kg, ip
Experiment [6] deals with Trypanosoma brucei rhodesiense. Briefly: Antitrypanosomal activity against Trypanosoma brucei rhodesiense STIB900 infected in NMRI mouse assessed as survival at 20 mg/kg, ip. It is filed as functional, organism-based. The arrangement: dose 20 mg/kg.

Molecules are shown by their SMILES. Activity calls are given as the source filed them. The rule behind the calls is not given here.

This passage reports Survival, IC50 and Activity results from ChEMBL document CHEMBL1152566, “Synthesis and activity of azaterphenyl diamidines against Trypanosoma brucei rhodesiense and Plasmodium falciparum” (Bioorg Med Chem, 2009).

By IC50 is commonly meant the concentration that gives 50% inhibition. Read a high IC50 as weaker potency.

With `N=C(N)c1ccc(-c2ccc(-c3cnc(C(=N)N)cn3)cn2)cc1`, in experiment [1], the Survival is over 31.75 days. The concentration for half-maximal inhibition (IC50) in experiment [2] came to 5.7 nM.

`N=C(N)c1ccc(-c2ccc(-c3ccc(C(=N)N)cn3)cc2)cc1`: the Survival in experiment [1] was over 56 days. Further, it took 1.3 nM to reach half-maximal inhibition in experiment [2] (IC50).

`N=C(N)c1ccc(-c2ccc(-c3ccc(C(=N)N)nc3)cc2)cc1`: in experiment [1], the Survival is over 48.75 days. Further, in experiment [3], the result was inactive.

Turning to `N=C(N)c1ccc(-c2ccc(-c3cnc(C(=N)N)nc3)cc2)cc1`, the Survival in experiment [1] was over 46.25 days. In addition, the IC50 stood at 4 nM in experiment [4] and 0.6 nM in experiment [2].

Take `N=C(N)c1ccc(-c2cnc(-c3ccc(C(=N)N)cc3)nc2)cc1`: the Survival in experiment [1] was found to be 23.5 days. The outcome in experiment [3] was inactive.

As for `N=C(N)c1ccc(-c2ccc(-c3ccc(C(=N)N)cn3)cn2)cc1`, the Survival in experiment [1] is over 60 days. In experiment [2], this compound had an IC50 of 2.5 nM.

For `N=C(N)c1ccc(-c2ccc(-c3ccc(C(=N)N)cc3)cc2)cc1`, the results for the half-inhibitory concentration (IC50) in experiment [4] and in experiment [2] were 5 nM and 1.4 nM, respectively. The Survival in experiment [5] is over 47.75 days.

Turning to `N=C(N)c1ncc(-c2ccc(-c3cnc(C(=N)N)nc3)cc2)cn1`, the Survival in experiment [1] was over 43.25 days. In addition, the figures for the 50% inhibitory concentration (IC50) in experiment [4] and in experiment [2] were 6 nM and 0.6 nM, respectively.

In the case of `N=C(N)c1ccc(-c2ccc(-c3ccc(C(=N)N)nc3)cc2)cn1`, the Survival in experiment [1] is over 51.5 days. Also, the result in experiment [3] was inactive.

Consider `N=C(N)c1ccc(-c2cnc(-c3ccc(C(=N)N)cc3)cn2)cc1`, for which the Survival in experiment [1] is 36.5 days. The IC50 was found to be 18 nM in experiment [4] and 0.4 nM in experiment [2]. Besides, the outcome in experiment [3] was inactive.

As for `N=C(N)c1ccc(-c2ccc(-c3ccc(C(=N)N)cn3)cc2)nc1`, the Survival in experiment [1] is over 60 days. For the same compound, the IC50 is 47 nM in experiment [4] and 10.1 nM in experiment [2].

Consider `N=C(N)c1ccc(-c2ccc(-c3ccc(C(=N)N)cn3)o2)cc1`, for which the Survival is over 54.5 days in experiment [1] and over 60 days in experiment [5]. Besides, in experiment [6], the outcome was Active.

Consider `N=C(N)c1ccc(-c2ccc(-c3cnc(C(=N)N)nc3)cn2)cc1`, for which the Survival in experiment [1] is over 43.25 days. The IC50 worked out at 12 nM in experiment [4] and 1.5 nM in experiment [2]. Moreover, the result in experiment [3] was inactive.

As to `N=C(N)c1ccc(-c2ccc(-c3ccc(C(=N)N)cc3)nn2)cc1`, the Survival in experiment [1] was over 49.25 days. Besides, the IC50 in experiment [4] is 14 nM; in experiment [2], 1.3 nM.

In the case of `N=C(N)c1ccc(-c2ccc(-c3ccc(C(=N)N)cc3)nc2)cc1`, in experiment [1], the Survival was over 42 days. For the same compound, the half-inhibitory concentration (IC50) in experiment [4] stood at 2 nM; in experiment [2], 10 nM.

For the compound `N=C(N)c1ccc(-c2ccc(-c3ccc(C(=N)N)cc3)o2)cc1` [FURAMIDINE], the Survival is over 46 days in experiment [1] and over 57.75 days in experiment [5].

Take `N=C(N)c1ccc(-c2ccc(-c3ccc(C(=N)N)nc3)cn2)cc1`: in experiment [1], the Survival is over 60 days. Further, the IC50 in experiment [4] amounted to 6 nM; in experiment [2], 1.1 nM.
